{"source": "patent US10208033B2", "about": "“β-carboline, dihydro-β-carboline and tetrahydro-β-carboline alkaloid derivatives and preparation methods same and use in aspects of preventing and treating plant viruses, fungicides and insecticides” (NANKAI UNIVERSITY, priority 2013, dated 2019)", "key": {"[1]": {"target": "monoamine oxidase (MAO-A) (Homo sapiens, UniProt P21397)", "sequence (P21397 whole entry, species assumed)": "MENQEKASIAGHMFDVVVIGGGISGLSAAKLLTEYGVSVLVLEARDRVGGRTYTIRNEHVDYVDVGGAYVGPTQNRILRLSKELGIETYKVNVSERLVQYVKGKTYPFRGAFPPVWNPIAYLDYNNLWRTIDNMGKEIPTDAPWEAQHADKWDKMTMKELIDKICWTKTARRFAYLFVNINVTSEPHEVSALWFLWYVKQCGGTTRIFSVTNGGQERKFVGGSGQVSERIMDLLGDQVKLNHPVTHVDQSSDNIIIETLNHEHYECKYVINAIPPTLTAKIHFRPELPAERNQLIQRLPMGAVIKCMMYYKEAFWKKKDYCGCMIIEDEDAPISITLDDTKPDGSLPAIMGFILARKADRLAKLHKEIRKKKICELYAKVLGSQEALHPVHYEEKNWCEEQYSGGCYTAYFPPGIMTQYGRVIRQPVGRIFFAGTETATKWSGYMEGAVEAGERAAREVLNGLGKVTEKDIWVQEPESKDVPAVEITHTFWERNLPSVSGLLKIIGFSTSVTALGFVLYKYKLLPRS", "conditions": "cited from earlier work"}, "Phytophthora capsici": {"tested_on": "Phytophthora capsici", "assay": "Fungicidal (bactericidal) activity in vitro, PDA colony diameter", "format": "cell-based", "conditions": "Phytophthora capsici, 96 h; 50 mg/kg"}, "corn borers": {"tested_on": "corn borers", "assay": "whole plant or invertebrate", "conditions": "read-out: Corn borer Mortality (%)"}, "[2]": {"tested_on": "tobacco mosaic virus (TMV)", "assay": "Anti-TMV in vivo protective effect", "design": "species or system tobacco mosaic virus (host Nicotiana tabacum L.cv.Xanthi NN)", "conditions": "Tobacco mosaic virus, read-out: Relative inhibition rate (%) In vivo protection"}, "Rhizoctonia cereali": {"tested_on": "Rhizoctonia cereali", "assay": "Fungicidal (bactericidal) activity in vitro, PDA colony diameter", "format": "cell-based", "conditions": "Rhizoctonia, 96 h; 50 mg/kg"}, "cucumber fusarium wilt": {"tested_on": "cucumber fusarium wilt", "assay": "Fungicidal (bactericidal) activity in vitro, PDA colony diameter", "format": "cell-based", "conditions": "Fusarium, 96 h; 50 mg/kg"}, "[3]": {"tested_on": "Colletotrichum orbiculare", "assay": "Fungicidal (bactericidal) activity in vitro, PDA colony diameter", "format": "cell-based", "conditions": "Colletotrichum orbiculare, 96 h; 50 mg/kg"}, "cotton bollworms": {"tested_on": "cotton bollworms", "assay": "whole plant or invertebrate", "conditions": "Helicoverpa armigera, in Gossypium hirsutum, read-out: Cotton bollworm Mortality (%)", "method": "Experimental method of cotton bollworms: feed and drug mixing method: measure 3 mL of prepared solution and add it to about 27 g of newly prepared feed, thereby obtaining needed concentration through dilution by 10 times."}, "Fusarium graminearumt": {"tested_on": "Fusarium graminearumt", "assay": "microbe, parasite or virus in culture", "format": "cell-based", "conditions": "Fusarium, 96 h, read-out: Bactericidal activity (%) Fusarium graminearumt"}, "HL60": {"tested_on": "HL60", "conditions": "cited from earlier work"}, "Alternaria solani": {"tested_on": "Alternaria solani", "assay": "Fungicidal (bactericidal) activity in vitro, PDA colony diameter", "format": "cell-based", "conditions": "Alternaria solani, 96 h; 50 mg/kg"}, "Bipolaria maydis": {"tested_on": "Bipolaria maydis", "assay": "organism not typed", "format": "cell-based", "conditions": "read-out: Bactericidal activity (%) Bipolaria maydis"}, "potato late blight": {"tested_on": "potato late blight", "assay": "microbe, parasite or virus in culture", "format": "cell-based", "conditions": "Phytophthora infestans, 96 h, read-out: Bactericidal activity (%) potato late blight"}, "Sclerotinia scleotiorum": {"tested_on": "Sclerotinia scleotiorum", "assay": "Fungicidal (bactericidal) activity in vitro, PDA colony diameter", "format": "cell-based", "conditions": "Sclerotinia, 96 h; 50 mg/kg"}, "Rhizoctonia solani": {"tested_on": "Rhizoctonia solani", "assay": "Fungicidal (bactericidal) activity in vitro, PDA colony diameter", "format": "cell-based", "conditions": "Rhizoctonia solani, 96 h; 50 mg/kg"}, "armyworms": {"tested_on": "armyworms", "format": "in vivo", "conditions": "concentration 600 mg/kg"}, "mosquito larvae": {"tested_on": "mosquito larvae", "assay": "whole plant or invertebrate", "conditions": "Culex pipiens, 24 h, read-out: Mosquito larvae Mortality (%)", "procedure,_shortened": "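Compound dissolved in acetone (or other solvent) to a 1000 ppm stock and diluted in water to 5 ppm. Ten Culex pipiens pallens larvae at the start of the fourth instar, laboratory-reared, added per beaker; solvent-only aqueous control.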"}, "[4]": {"tested_on": "tobacco mosaic virus (TMV)", "assay": "Anti-TMV in vitro effect (half-leaf soaking)", "format": "cell-based, tobacco mosaic virus (host Nicotiana tabacum L.cv.Xanthi NN)", "conditions": "Tobacco mosaic virus, read-out: Relative inhibition rate (%) In vitro activity"}, "[5]": {"tested_on": "tobacco mosaic virus (TMV)", "assay": "Anti-TMV in vivo therapeutic effect", "design": "species or system tobacco mosaic virus (host Nicotiana tabacum L.cv.Xanthi NN)", "conditions": "Tobacco mosaic virus, read-out: Relative inhibition rate (%) In vivo therapy"}, "[6]": {"tested_on": "tobacco mosaic virus (TMV)", "assay": "Anti-TMV in vivo inactivation", "design": "species or system tobacco mosaic virus (host Nicotiana tabacum L.cv.Xanthi NN)", "conditions": "Tobacco mosaic virus, read-out: Relative inhibition rate (%) In vivo inactivation"}, "Macrophoma kawatsukai": {"tested_on": "Macrophoma kawatsukai", "assay": "Fungicidal (bactericidal) activity in vitro, PDA colony diameter", "format": "cell-based", "conditions": "50 mg/kg"}, "Cercospora arachidicola": {"tested_on": "Cercospora arachidicola", "assay": "Fungicidal (bactericidal) activity in vitro, PDA colony diameter", "format": "cell-based", "conditions": "Mycosphaerella arachidis, 96 h; 50 mg/kg"}, "Fusarium fujikuroi": {"tested_on": "Fusarium fujikuroi", "assay": "Fungicidal (bactericidal) activity in vitro, PDA colony diameter", "format": "cell-based", "conditions": "Fusarium fujikuroi, 96 h; 50 mg/kg"}, "Botrytis cinerea": {"tested_on": "Botrytis cinerea", "assay": "Fungicidal (bactericidal) activity in vitro, PDA colony diameter", "format": "cell-based", "conditions": "Botrytis cinerea, 96 h; 50 mg/kg"}}}
{"smiles": "COc1ccc2c3c([nH]c2c1)C(C)=NCC3", "note": "[Harmaline]", "values": [{"measurement": "inhibition of monoamine oxidase (MAO-A)", "setting": "[1]", "result": "reversible inhibitor"}]}
{"smiles": "COc1ccc2c(c1)[nH]c1c(C)nccc12", "note": "[Harmine]", "values": [{"measurement": "inhibition of growth at 50 mg/kg", "setting": "Phytophthora capsici", "result": 60.6, "unit": "%"}, {"measurement": "mortality at 600 mg/kg", "setting": "corn borers", "result": 15, "unit": "%"}, {"measurement": "inhibition at 100 µg/mL", "setting": "[2]; treatment dose 100 μg/mL", "result": 16.3, "unit": "%"}, {"measurement": "inhibition at 500 µg/mL", "setting": "[2]; treatment dose 500 μg/mL", "result": 42.4, "unit": "%"}, {"measurement": "inhibition of growth at 50 mg/kg", "setting": "Rhizoctonia cereali", "result": 71.9, "unit": "%"}, {"measurement": "inhibition of growth at 50 mg/kg", "setting": "cucumber fusarium wilt", "result": 28.6, "unit": "%"}, {"measurement": "inhibition of growth at 50 mg/kg", "setting": "[3]", "result": 57.1, "unit": "%"}, {"measurement": "mortality at 600 mg/kg", "setting": "cotton bollworms", "result": 15, "unit": "%"}, {"measurement": "inhibition of growth at 50 mg/kg", "setting": "Fusarium graminearumt", "result": 92.9, "unit": "%"}, {"measurement": "cytotoxicity to leukemia cell line HL60", "setting": "HL60", "result": "shows cytotoxicity"}, {"measurement": "inhibition of growth at 50 mg/kg", "setting": "Alternaria solani", "result": 83.3, "unit": "%"}, {"measurement": "inhibition at 50 mg/kg", "setting": "Bipolaria maydis", "result": 31.6, "unit": "%"}, {"measurement": "inhibition of growth at 50 mg/kg", "setting": "potato late blight", "result": 35, "unit": "%"}, {"measurement": "inhibition of growth at 50 mg/kg", "setting": "Sclerotinia scleotiorum", "result": 48, "unit": "%"}, {"measurement": "inhibition of growth at 50 mg/kg", "setting": "Rhizoctonia solani", "result": 21.4, "unit": "%"}, {"measurement": "Armyworm Mortality (%)", "setting": "armyworms", "result": 20, "unit": "%"}, {"measurement": "mortality at 10 mg/kg", "setting": "mosquito larvae", "result": 45, "unit": "%"}, {"measurement": "inhibition at 100 µg/mL", "setting": "[4]; treatment dose 100 μg/mL", "result": 20, "unit": "%"}, {"measurement": "inhibition at 500 µg/mL", "setting": "[4]; treatment dose 500 μg/mL", "result": 44.6, "unit": "%"}, {"measurement": "inhibition at 100 µg/mL", "setting": "[5]; treatment dose 100 μg/mL", "result": 15.8, "unit": "%"}, {"measurement": "inhibition at 500 µg/mL", "setting": "[5]; treatment dose 500 μg/mL", "result": 38.6, "unit": "%"}, {"measurement": "inhibition at 100 µg/mL", "setting": "[6]; treatment dose 100 μg/mL", "result": 11.4, "unit": "%"}, {"measurement": "inhibition at 500 µg/mL", "setting": "[6]; treatment dose 500 μg/mL", "result": 40.5, "unit": "%"}, {"measurement": "inhibition at 50 mg/kg", "setting": "Macrophoma kawatsukai", "result": 35.3, "unit": "%"}, {"measurement": "inhibition of growth at 50 mg/kg", "setting": "Cercospora arachidicola", "result": 57.1, "unit": "%"}, {"measurement": "inhibition of growth at 50 mg/kg", "setting": "Fusarium fujikuroi", "result": 57.1, "unit": "%"}, {"measurement": "inhibition of growth at 50 mg/kg", "setting": "Botrytis cinerea", "result": 59.1, "unit": "%"}]}
